From patent publication US8394969B2, “Cyclic benzimidazole derivatives useful as anti-diabetic agents” (Merck Sharp & Dohme Corp., priority 2008, dated 2013)
Structures can show the parent of a compound that is named as a salt.

target: recombinant human AMPK complex 1 (containing α1β1γ1) (Homo sapiens, UniProt Q13131+Q9Y478); experiment: […] (in vitro AMPK activation assay); format: biochemical; details: not given
Sequence (Q13131 whole entry): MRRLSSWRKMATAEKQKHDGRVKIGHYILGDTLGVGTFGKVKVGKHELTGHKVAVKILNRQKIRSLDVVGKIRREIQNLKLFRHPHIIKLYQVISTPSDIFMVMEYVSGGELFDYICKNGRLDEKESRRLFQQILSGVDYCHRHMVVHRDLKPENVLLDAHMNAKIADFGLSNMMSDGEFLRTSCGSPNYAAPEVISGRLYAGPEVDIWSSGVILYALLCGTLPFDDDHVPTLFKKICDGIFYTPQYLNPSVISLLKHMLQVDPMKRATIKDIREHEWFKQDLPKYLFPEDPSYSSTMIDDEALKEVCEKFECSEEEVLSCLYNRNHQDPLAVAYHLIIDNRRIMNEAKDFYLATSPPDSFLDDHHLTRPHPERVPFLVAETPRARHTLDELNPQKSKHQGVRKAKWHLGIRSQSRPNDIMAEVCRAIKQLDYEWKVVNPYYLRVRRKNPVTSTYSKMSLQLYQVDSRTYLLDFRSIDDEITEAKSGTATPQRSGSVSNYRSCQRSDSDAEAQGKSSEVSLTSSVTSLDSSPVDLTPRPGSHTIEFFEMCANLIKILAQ
Sequence (Q9Y478 whole entry): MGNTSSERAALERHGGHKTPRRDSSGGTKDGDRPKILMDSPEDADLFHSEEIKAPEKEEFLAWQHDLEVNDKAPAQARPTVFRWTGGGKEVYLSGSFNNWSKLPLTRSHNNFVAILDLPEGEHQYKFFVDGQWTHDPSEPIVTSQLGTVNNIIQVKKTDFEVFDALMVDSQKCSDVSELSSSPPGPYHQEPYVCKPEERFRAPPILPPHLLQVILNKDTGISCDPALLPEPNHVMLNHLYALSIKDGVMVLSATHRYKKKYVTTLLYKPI
Sequence (P54619 whole entry partner): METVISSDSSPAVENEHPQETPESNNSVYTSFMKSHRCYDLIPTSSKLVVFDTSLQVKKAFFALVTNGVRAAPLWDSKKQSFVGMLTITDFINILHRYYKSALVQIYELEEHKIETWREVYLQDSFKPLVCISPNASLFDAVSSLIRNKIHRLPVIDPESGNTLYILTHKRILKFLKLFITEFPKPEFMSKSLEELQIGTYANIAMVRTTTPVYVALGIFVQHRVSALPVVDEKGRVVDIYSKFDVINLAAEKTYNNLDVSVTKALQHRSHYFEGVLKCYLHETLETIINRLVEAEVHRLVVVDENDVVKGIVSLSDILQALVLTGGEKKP

SMILES | % Maximum AMP Activation of human AMPK Complex 1
COc1ccc(-c2cc3nc(Oc4ccc(C)c(C(=O)O)c4)[nH]c3cc2Cl)c(F)c1.N [Example 342, Ammonium 5-{[6-chloro-5-(2-fluoro-4-methoxyphenyl)-1H-benzimidazol-2-yl]oxy}-2-methylbenzoate] | greater than 80%

same assay, conditions: read-out: % Maximum AMP Activation of human AMPK Complex 1, recombinant human AMPK complex 1 (α1β1γ1); basal activity subtracted

SMILES | Emax
Cc1ccc(-c2cc3nc(Oc4ccc(C)c(C(=O)O)c4)[nH]c3cc2Cl)cc1C [Example 340, Ammonium 5-{[6-chloro-5-(3,4-dimethylphenyl)-1H-benzimidazol-2-yl]oxy}-2-methylbenzoate] | > 80%

same assay, conditions: recombinant human AMPK complex 1 (α1β1γ1); basal activity subtracted; read-out: % Maximum AMP Activation of human AMPK Complex 1

SMILES | Emax
Cc1ccc(C#Cc2cc3nc(Oc4ccc(C)c(C(=O)O)c4)[nH]c3cc2Cl)cn1 [Example 132, 5-[6-Chloro-5-(6-methyl-pyridin-3-ylethynyl)-1H-benzoimidazol-2-yloxy]-2-methyl-benzoic acid] | > 80%
Cc1ccc(Oc2nc3cc(C#Cc4ccc(C(F)(F)F)cc4)c(Cl)cc3[nH]2)cc1C(=O)O [Example 93, 5-[6-Chloro-5-(4-trifluoromethyl-phenylethynyl)-1H-benzoimidazol-2-yloxy]-2-methyl benzoic acid] | > 80%
Cc1ccc(Oc2nc3cc(C#Cc4ccc(O)cc4)c(Cl)cc3[nH]2)cc1C(=O)O [Example 116, 5-[6-Chloro-5-(4-hydroxy-phenylethynyl)-1H-benzoimidazol-2-yloxy]-2-methyl-benzoic acid] | > 80%
Cc1[nH]c2ccc(Oc3nc4cc(-c5ccc(-c6ccccc6)cc5)c(Cl)cc4[nH]3)cc2c1C(=O)O [Example 5, 5-(5-Biphenyl-4-yl-6-chloro-1H-benzoimidazol-2-yloxy)-2-methyl-1H-indole-3-carboxylic acid] | > 80%
Cc1ccc(Oc2nc3cc(-c4ccc5c(c4)CN(C(C)C)C5)c(Cl)cc3[nH]2)cc1C(=O)O [Example 299, 5-[2-(3-carboxy-4-methylphenoxy)-6-chloro-1H-benzimidazol-5-yl]-2-isopropyl-2,3-dihydro-1H-isoindolium trifluoroacetate] | > 80%
Cc1ccc(Oc2nc3cc(-c4ccc(-c5ccc(=O)n(C(F)F)c5)cc4)c(Cl)cc3[nH]2)cc1C(=O)O [Example 162, 5-{6-Chloro-5-[4-(1-difluoromethyl-6-oxo-1,6-dihydro-pyridin-3-yl)-phenyl]1H-benzoimidazol-2-yloxy}-2-methyl-benzoic acid] | > 80%
O=C(O)C(O)c1cccc(Oc2nc3cc(-c4ccc(-c5ccccc5)cc4)c(Cl)cc3[nH]2)c1 (stereo not drawn) [Example 19] | > 80%
COC(=O)c1cc(Oc2nc3cc(-c4ccc(-c5ccccc5C)cc4)c(Cl)cc3[nH]2)ccc1C [Example 198, Methyl 5-{[6-chloro-5-(2′-methylbiphenyl-4-yl)-1H-benzimidazol-2-yl]oxy}-2-methylbenzoate] | > 80%
O=C1NC(=O)C(c2ccc(Oc3nc4cc(-c5ccc(-c6ccccc6)cc5)c(Cl)cc4[nH]3)cc2)N1 (stereo not drawn) [Example 29, 5-[4-(5-Biphenyl-4-yl-6-chloro-1H-benzoimidazol-2-yloxy)-phenyl]-imidazolidine-2,4-dione] | > 80%
O=C(O)Cc1cc(Oc2nc3cc(-c4ccc(-c5ccccc5)cc4)c(Cl)cc3[nH]2)ccc1O [Example 17, [5-(5-Biphenyl-4-yl-6-chloro-1H-benzoimidazol-2-yloxy)-2-hydroxy-phenyl]-acetic acid] | > 80%
Cc1ccc(Oc2nc3cc(-c4ccc(C(C)C)cc4)c(Cl)cc3[nH]2)cc1C(=O)O [Example 352, 5-[6-Chloro-5-(4-isopropyl-phenyl)-1H-benzoimidazol-2-yloxy]-2-methyl-benzoic acid] | > 80%
Cc1ccc(Oc2nc3cc(C#Cc4cccc(C(=O)O)c4)c(Cl)cc3[nH]2)cc1C(=O)O [Example 126, 5-[5-(3-Carboxy-phenylethynyl)-6-chloro-1H-benzoimidazol-2-yloxy]-2-methyl-benzoic acid] | > 80%
COC(=O)c1cc(Oc2nc3cc(C#Cc4ccc(-c5cnco5)cc4)c(Cl)cc3[nH]2)ccc1C [Example 123, 5-[6-Chloro-5-(4-oxazol-5-yl-phenylethynyl)-1H-benzoimidazol-2-yloxy]-2-methyl-benzoic acid methyl ester] | > 80%
